This is an account of results in patent US6346540B1, “1-(1,2-disubstituted pipeidinyl)-4-substituted piperidine derivatives” (Janssen Pharmaceutica N.V., priority 1995, dated 2002).

One data set relates to guinea-pigs. Nature of the data set: Antagonism of substance P induced plasma extravasation in guinea-pigs. The class given is in vivo. The note with it: lowest active dose, compound given 1 hour prior to substance P, female guinea-pigs; for LAD conjunctiva / LAD forepaws / LAD nose: 10 minutes after challenge; for LAD trachea / LAD urinary bladder: 30 minutes after challenge. The method, then: Antagonism of Substance P Induced Plasma Extravasation in Guinea-pigs
Plasma extravasation was induced by injection of substance P (2 mg/kg) in the femoral artery of female guinea-pigs. Evans Blue dye (30 mg/kg) was injected simultaneously. The test compound or solvent was administered 1 hour prior to substance P injection. 10 minutes after challenge, the animals were checked for blue colouring (a direct measure for plasma extravasation) of the nose, the forepaws, and the conjunctiva. 30 minutes after challenge, the animals were sacrificed by CO2 gas inhalation and checked for blue coloring of the trachea and the urinary bladder. […]

The term melting point denotes the temperature of the solid-liquid transition. Compound `Cc1cc(C)cc(C(=O)N2CC[C@H](N3CCC(C(=O)O)(c4ccccc4)CC3)C[C@@H]2Cc2ccccc2)c1` (racemic) yielded a melting point of 259.1 °C.
For `COc1ccccc1C1(O)CCN([C@@H]2CCN(C(=O)c3cc(C)cc(C)c3)[C@@H](Cc3ccccc3)C2)CC1` (racemic) [Compound 17, (±)-trans-1-(3,5-dimethylbenzoyl)-4-[4-hydroxy-4-(2-methoxyphenyl)-1-piperidinyl]-2-(phenyl-methyl)piperidine], the melting point amounted to 213.1 °C.
On the same count and under the same terms, the figure for `Cc1cc(C)cc(C(=O)N2CC[C@H](N3CCC(NC(=O)c4ccccc4N)CC3)C[C@@H]2Cc2ccccc2)c1` (racemic) [Compound 24, (±)-cis-2-amino-N-[1-[1-(3,5-dimethylbenzoyl)-2-(phenylmethyl)-4-piperidinyl]-4-piperidinyl]benzamide] is 121.1 °C.
Compound `Cc1cc(C)cc(C(=O)N2CC[C@@H](N3CCC(NCCc4ccccc4)CC3)C[C@@H]2Cc2ccccc2)c1` (racemic) [Compound 27, (±)-trans-1-(3,5-dimethylbenzoyl)-4-[4-[(2-phenylethyl)amino]-1-piperidinyl]-2-(phenylmethyl)piperidine] registered a melting point of 67.8 °C.
The same measure, in the same setting: the same measure for `Cc1cc(C)cc(C(=O)N2CC[C@@H](N3CCC(OC(=O)c4cc(Cl)cc(Cl)c4)CC3)C[C@@H]2Cc2ccccc2)c1` (racemic) [Compound 33, (±)-trans-1-[1-(3,5-dimethylbenzoyl)-2-(phenylmethyl)-4-piperidinyl]-4-piperidinyl 3,5-dichloro-benzoate]: 83.3 °C.
In turn, `O=C(c1cc(C(F)(F)F)cc(C(F)(F)F)c1)N1CC[C@@H](N2CCC(n3c(=O)[nH]c4ccccc43)CC2)C[C@@H]1Cc1ccccc1` (racemic) [Compound 43, (±)-trans-1-[3,5-bis(trifluoromethyl)benzoyl]-4-[4-(2,3-dihydro-2-oxo-1H-benzimidazol-1-yl)-1-piperidinyl]-2-(phenylmethyl)piperidine] registered a melting point of 156.1 °C. Further, in the data set with guinea-pigs, the LAD conjunctiva turned out to be 2.5 mg/kg, the LAD forepaws stood at 2.5 mg/kg, the LAD nose is listed as 2.5 mg/kg and the LAD trachea is recorded as 10 mg/kg. The same compound registered an LAD urinary bladder in the data set with guinea-pigs of 10 mg/kg.
Take `O=C(c1cc(C(F)(F)F)cc(C(F)(F)F)c1)N1CC[C@@H](N2CCC(C(=O)N3CCCC3)(c3ccccc3)CC2)C[C@@H]1Cc1ccc(C(F)(F)F)cc1` (racemic) [Compound 112, (±)-trans-1-[3,5-bis(trifluoromethyl)benzoyl]-4-[4-phenyl-4-(1-pyrrolidinylcarbonyl)-1-piperidinyl]-2-[[4-(trifluoromethyl)phenyl]methyl]-piperidine]: in the data set with guinea-pigs, the LAD conjunctiva was determined as 2.5 mg/kg, the LAD forepaws is on record as 2.5 mg/kg, the LAD nose is recorded as 2.5 mg/kg and the LAD trachea is on record as 2.5 mg/kg. In the data set on guinea-pigs, this compound returned an LAD urinary bladder of 2.5 mg/kg.
